From US6436428B1, “Device and method for treating urinary incontinence in females” (Enhance Pharmaceuticals, Inc., priority 2000, dated 2002)

Experiments:
[1] = Plasma oxybutynin and desethyloxybutynin in rabbits with vaginal inserts; type: in vivo, rabbit; details: for plasma concentration: days 1-7; for plasma values at all time periods (day 1-7): 5.0 mg/day vaginal insert
Experimental: 12 rabbits were separated into 4 groups of 3 rabbits each. Under pentobarbital anesthesia (25 mg/kg, iv) A cylinder-shaped, curved silastic insert was placed in the vagina of each rabbit. This was accomplished by the following: a midline laparotomy was performed and after transvaginal insertion the implant was anchored with a single 2.0 silk suture through the outer vaginal wall and knotted to a 1 cm section of a medical-grade tubing to avoid damage to the vaginal wall. The inserts in group one contained vehicle, the inserts in groups 2-4 were calculated to release oxybutynin at rates of 0.5 mg/day; 1 mg/day; and 5 mg/day respectively. The inserts remained in place for 7 days. Samples of blood (2 ml) were collected at 12:00 noon on days 1, 3, 5 and 7. After the last blood sample was obtained, each rabbit was sedated and cystometries were performed. Immediately after the cystometry, the rabbit was euthanized, the lower urinary tract including the vagina was removed and evaluated for irritation. In addition, the bladder was excised and weighed.
The samples of blood were frozen and subsequently analyzed. The oxybutynin and desethyloxybutynin concentrations were quantified.

[2] = oral administration of oxybutynin; cited from earlier work

change of plasma concentration between day 1 and 3 ([1]; 0.5 mg/day vaginal insert) | plasma concentration course between days 3 and 7 ([1]; 0.5 mg/day vaginal insert) | change of plasma concentration between day 1 and 3 ([1]; 1.0 mg/day vaginal insert) | plasma concentration course between days 3 and 7 ([1]; 1.0 mg/day vaginal insert) | stable plasma concentration of 1.0 mg/day group relative to 0.5 mg/day group ([1]; vaginal inserts, FIG. 18) | stable plasma concentration of 5.0 mg/day group relative to 1.0 mg/day group ([1]; vaginal inserts, FIG. 18) | SMILES | plasma concentration ([1]; 0.5 mg/day vaginal insert) | plasma concentration ([1]; 1.0 mg/day vaginal insert) | plasma values at all time periods (day 1-7) [1] | AUC (area under the plasma time concentration curve) of the metabolite relative to oxybutynin [2] | peak blood concentration of the metabolite relative to oxybutynin [2]
– | – | – | – | – | – | CCNCC#CCOC(=O)C(O)(c1ccccc1)C1CCCCC1 (stereo not drawn) [N-desethyloxybutynin] | below the level of detection | below the level of detection | stable plasma values | 10-12 times | 6-9 times higher
increase | stable concentration | increase | stable concentration | approximately twice | approximately 4 fold | CCN(CC)CC#CCOC(=O)C(O)(c1ccccc1)C1CCCCC1 (stereo not drawn) [oxybutynin, 4-diethylamino-2-butynylphenylcyclohexylglycolate] | – | – | stable plasma values | – | –
